# Earlier results as cited in patent publication US20240415845A1, “Compositions of Iboga Alkaloids and Methods of Treatment” (priority 2022, published 2024).
# Details: in vivo; cited from earlier work
compound,measurement,value
"CC[C@H]1CC2C[C@H]3c4[nH]c5ccc(O)cc5c4CCN(C2)C13 [noribogaine, Noribogaine]",half-life,28 to 49 h
